From patent US20230310441A1, “TREATMENT FOR SCHIZOPHRENIA” (TAKEDA PHARMACEUTICAL COMPANY, priority 2020, published 2023)
Marks after values point to notes of the source that are not given here.

Experiments:
[1] = Separate single dose oral study: half-life in humans; details: human, in vivo; single dose oral administration
Excerpt: (§1) The mean t1/2z for Compound (I) reflects the prolonged half-life of Compound (I) in humans. […] In that study, the mean human half-life of Compound (I) (approximately 11 days) was substantially higher than the 2-4 hr mean half-life observed in rats and dogs.

[2] = Phase 1 FIH study Part 4: safety and tolerability (TEAEs) in patients with stable schizophrenia; assay type: in vivo, human
Excerpt: Part 4 was a double-blind, weekly single dosing, parallel group design in patients with stable schizophrenia.
Participants in the placebo group received placebo on all study dosing days.
In Part 4, participants met schizophrenia criteria as defined by the Diagnostic and Statistical Manual of Mental Disorders, 5th Edition (DSM-5) by the Mini International Neuropsychiatric Interview (MINI), a Positive and Negative Syndrome Scale (PANSS) total score ≤90 and a sum of PANSS N1, N2, N3, N4, N6, G7 and G16≥15 at screening and baseline. In addition, participants had to be on a stable dose of antipsychotic medication for at least two months.
Safety measurements used in the phase 1 study included treatment-emergent adverse events (TEAEs), physical examinations, weight, height, BMI, vital signs, clinical laboratory evaluations, pregnancy monitoring, and ECG procedures.
Participants experiencing two or more different TEAEs were counted only once. Frequent TEAEs were defined as adverse events that occurred in at least two participants in any treatment. Participants were evaluated with respect to mood and alertness (BL-VAS) and suicidality (C-SSRS).

cerebral blood flow = test: Average global cerebral blood flow (pCASL MRI); assay type: in vivo, human
Excerpt: Whole brain maps of regional cerebral blood flow (CBF) were obtained using an ASL methodology previously reported (Hawkins et al., 2018; Dai et al., 2008). Briefly, images were acquired using a pseudo-continuous Arterial Spin Labelling sequence (pCASL) with a multi-shot, segmented 3D stack of axial spirals (8-arms) readout with a resultant spatial resolution of 2×2×3 mm. Three control-label pairs were used to derive a perfusion weighted difference image. The labelling RF pulse had duration of 1.5 s and a post-labelling delay of 1.5 s. The sequence included background suppression for optimum reduction of the static tissue signal. A Proton Density image was acquired in 48 s using the same acquisition parameters to compute the CBF map in standard physiological units (mL blood/100 g tissue/min). Two runs were acquired per visit and averaged following preprocessing.
The T2-weighted image was co-registered to the T1-weighted image prior to creation of the DARTEL template, and each session's Proton Density image was then co-registered to the T2-weighted image. The parameters for this transformation were then applied to the CBF maps, and the DARTEL flow field applied to normalize to CBF maps to MNI space, before smoothing with a 6 mm FWHM kernel.
Average global cerebral blood flow (CBF) was extracting using an SPM MNI whole brain mask in MarsBar, and was analyzed at each time point with a mixed two-way ANOVA (treatment (placebo/drug) within subject factor, dose level (40 mg/160 mg) between-subject factor) (FIG. 4).

[3] = system: endogenous dopamine release in the human brain; test: [^11C]PHNO PET of endogenous dopamine release after d-AMPH challenge; assay type: in vivo; details: for ΔΔBPND Mean (SD), Ca / ΔΔBPND Mean (SD), GP / ΔΔBPND Mean (SD), Pu / ΔΔBPND Mean (SD), SN / ΔΔBPND Mean (SD), VSt: attenuation of d-AMPH effect
Procedure: A T1-weighted magnetic resonance imaging (MRI) scan of the brain, performed at screening, was used to obtain anatomical information required for PET data analysis. Each subject underwent three [^11C]PHNO PET scans, one at baseline, the second approximately 3 h after a single oral dose of dex-amphetamine (d-AMPH, 0.5 mg/kg), and the third approximately 5 h after a single oral dose of Compound (I) (20 or 40 mg) and 3 h after an oral dose of dex-amphetamine (d-APMH) (0.5 mg/kg) (FIG. 2).
Subjects were positioned in the PET scanner, after the insertion of a venous cannula in an antecubital or forearm vein. Soft padding and head restraints were used to minimize head movement during data acquisition. All dynamic [^11C]PHNO PET scans were acquired on Siemens Biograph 6 PET/CT scanners (Hi-Rez (PET/CT1) or a TruePoint with TrueV, Siemens Healthcare, Erlangen, Germany). All scans for a particular subject were acquired on the same scanner. A low-dose computed tomography (CT) scan was performed immediately before each PET study to estimate signal attenuation. Following an intravenous bolus injection of [^11C]PHNO, dynamic emission data were acquired for 90 min in 26 frames of increasing duration. The dynamic images were reconstructed using Fourier rebinning and a 2D filtered discrete inverse Fourier transform algorithm with 5 mm isotropic Gaussian filter on a 128×128 matrix with 2.6 zoom giving 2 mm isotropic voxels. Appropriate corrections were applied for attenuation, randoms, and scatter.
The primary set of ROIs defined were the ventral striatum (VSt), putamen (Pu) and cerebellum. […] The cerebellum was used as a reference region. An additional set of ROIs including the caudate nucleus (Ca), globus pallidus (GP) and substantia nigra (SN) was also evaluated.
Regional TAC data extracted from the PET images were fitted using a basis function implementation of the SRTM (Gunn et al., 1997) to estimate the binding potential relative to the non-displaceable component (BPND) for each PET scan, as a measure of specific binding (Innis et al., 2007).
Reduction in [^11C]-PHNO specific binding following a d-AMPH challenge (ΔBPND^APMH) was quantified as percent change in postdose BPND (BPND^AMPH) from baseline BPND (BPND^BL):
Reduction in [^11C]-PHNO specific binding following a combination of Compound (I) and d-AMPH (ΔBPND^APMH+C1) was quantified as percent change in postdose BPND (BPND^AMPH+C1) from baseline BPND (BPND^BL):
The effect of Compound (I) (ΔΔBPND) was quantified as the percent change BPND in ΔBPND^APMH+C1 compared to ΔBPND^APMH:
All statistical comparisons were conducted using Student's t-tests for each ROI, using paired tests for within subject comparisons, and unpaired tests for between group comparisons.

[4] = Separate single dose oral study: half-life in rats; details: rat, in vivo; single dose oral administration of 5-15 mg/kg
Excerpt: as §1

[5] = Part 4 MRD, 160/80 mg, N = 16, participants (percent)

C[C@H](NC(=O)Cn1nnc2ccccc2c1=O)c1ccc(OC(F)(F)F)cc1 [Compound (I), (S)-2-(4-oxobenzo[d][1,2,3]triazin-3(4H)-yl)-N-(1-(4-(trifluoromethoxy)phenyl)ethyl)acetamide]
half-life [1]: ~11 days | TEAE intensity ([2]; Part 4 (MRD)): All TEAEs were mild | frequency of TEAEs related to the study drug ([2]; Part 4 (MRD), patients with schizophrenia who received Compound (I)): 56.3% | Any TEAE [2, 5]: 9 (56.3) | TEAE Mild [2, 5]: 9 (56.3) | TEAE Related [2, 5]: 9 (56.3) | effect of treatment on average global CBF (mixed two-way ANOVA) (cerebral blood flow; Day 1, 40 mg/160 mg vs placebo, F(1, 18)=5.978, p=0.025): significant effect of treatment | effects on cerebral blood flow compared to placebo (cerebral blood flow; Day 1 and Day 14): widespread and robust reductions at Day 1 followed by increases at Day 14 | effect of treatment on average global CBF (mixed two-way ANOVA) (cerebral blood flow; Day 14, 40 mg/160 mg vs placebo, F(1, 15)=3.558, p=0.079): no significant effect of treatment | dose effect on ΔΔBPND, 40 mg group vs 20 mg group ([3]; Pu and GP, one-tailed t-tests, p<0.01): significantly greater than that in the 20 mg group | effect of pre-treatment on the d-AMPH challenge ([3]; all ROI, significant in Pu, VSt and SN): attenuated the effect of the d-AMPH challenge in all ROI examined | ΔΔBPND Mean (SD), Ca ([3]; 20 mg single oral dose): −4.2 (59.2) % | ΔΔBPND Mean (SD), GP ([3]; 20 mg single oral dose): −3.2 (19.7) % | ΔΔBPND Mean (SD), Pu ([3]; 20 mg single oral dose): 16.4 (11.3)* % | ΔΔBPND Mean (SD), SN ([3]; 20 mg single oral dose): 25.6 (49.7) % | ΔΔBPND Mean (SD), VSt ([3]; 20 mg single oral dose): 13.8 (14.1)* % | ΔΔBPND Mean (SD), Ca ([3]; 40 mg single oral dose): 24.8 (26.7) % | ΔΔBPND Mean (SD), GP ([3]; 40 mg single oral dose): 66.6 (32.4) % | ΔΔBPND Mean (SD), Pu ([3]; 40 mg single oral dose): 36.4 (7.7) * % | ΔΔBPND Mean (SD), SN ([3]; 40 mg single oral dose): 40.8 (58.6) % | ΔΔBPND Mean (SD), VSt ([3]; 40 mg single oral dose): 22.6 (20.3) % | ΔΔBPND Mean (SD), Ca ([3]; all subjects (20 or 40 mg)): 10.3 (45.9) % | ΔΔBPND Mean (SD), GP ([3]; all subjects (20 or 40 mg)): 31.7 (44.6) % | ΔΔBPND Mean (SD), Pu ([3]; all subjects (20 or 40 mg)): 26.4 (13.9)* % | ΔΔBPND Mean (SD), SN ([3]; all subjects (20 or 40 mg)): 33.2 (51.8)* % | ΔΔBPND Mean (SD), VSt ([3]; all subjects (20 or 40 mg)): 18.2 (17.1)* % | blood-brain barrier crossing ([3]; healthy human volunteers): readily crossed the blood-brain barrier | modulation of dopamine release ([3]; healthy human volunteers, 20 or 40 mg single oral dose): dose-dependent modulation of dopamine release | half-life [4]: 120 to 240 min
